In patent US20140272041A1, “METHODS OF REDUCING PATHOGENS DURING PROCESSING OR POST-PROCESSING OF BEEF, POULTRY AND OTHER MEAT PRODUCTS” (BIRKO Corporation, priority 2009, published 2014):
Several values for one entry are separate records, joined by “and”; a condition that tells them apart may be missing. Identical values can stand only once.

Tests used:
Assay type in all cases: cell-based, Escherichia coli
[1] = test system: E. coli ATCC 43888 (O157:H7); test: Log kill in aqueous bacterial suspension, plating on TSA; conditions: 73 deg. F.
[2] = test system: E. coli SAC-2; test: Log kill / surviving titer in aqueous bacterial suspension, plating on TSA; conditions: for Log Kill […] Lactic Acid: 75 degrees F.; for Log Kill: sulfate; for cfu per ml: 75 deg. F. (0.00 control 4.18E+07)
Protocol: In each instance a target sample was employed using approximately 50 micro liters of an SAC-2 culture. E. coli “SAC-2,” was a Gram-negative strain isolated from municipal sewage. The tests were performed at room temperature, i.e., 75 deg. F. […] The results of each test sample were evaluated using a series of 10-fold dilutions as needed to determine, on a standard plating agar (TSA), the titer of bacteria that survived the antimicrobial treatment.
The same procedure was employed as in Example 2, but the only agent added to the target solution was Niaproof 08. No lactic acid was employed.
The mixture was then diluted and plated as previously described.
Increasing amounts of reagent were added to a series of test tubes. […] The bacterial titer of each mixture was determined by preparation and plating of serial dilutions on TSA.
[…] […] The amphoteric and zwitterionic surfactants, which carry a net positive charge under the conditions of the reaction mixture, caused enhancement of the log kill by lactic acid. All anionic surfactants tested caused substantial enhancement of the log kill by lactic acid.

[3] = test system: E. coli ATCC 12435; test: as above; conditions: for cfu per ml: no lactic acid (0.00 control 3.41E+07)
Protocol: The “reaction” (i.e. interaction of antimicrobial agent and the target organism) was initiated by the addition of bacteria to the antimicrobial solution. The reaction was allowed to proceed for the respective time periods listed in Table I (i.e., at least 15 seconds each) and was terminated at the end of that time by adding quench buffer comprising 3.2 M potassium phosphate buffer, pH 7.2. The sample then was evaluated using serial 10-fold dilutions into sterile phosphate buffer as needed to determine, on Tryptic Soy agar (“TSA”), the titer of surviving bacteria. TSA is a medium that allows the growth of most bacteria.
The reduction in the bacterial count is expressed as the “log kill” which is defined as log10 [initial cfu/ml]−log10 [remaining cfu/ml]; where “cfu” refers to “colony forming unit.” All log kills reported herein are positive “base 10.”). Inasmuch as the standard assay mixture contained only ca. 25×10^6 cfu initially (equivalent to 7.398 log) the theoretical maximum kill that can be measured with this assay system is ca. 7.4 log and the practical measuring limit is ca. 6 log. Therefore, high levels of log reduction were monitored by plating reaction mixtures directly (without dilution) onto agar medium. The results are reported in Table I and illustrated in graph format in FIG. 1. […] The tests were replicated with E. coli ATCC 43888, a pathogenic strain of E. coli O157:H7. […]
After incubation for 15 seconds at ambient temperature the reaction was quenched by addition of phosphate buffer and the titer of surviving bacteria was determined by plating on TSA as described in the previous examples. […] The amphoteric and zwitterionic surfactants, which carry a net positive charge under the conditions of the reaction mixture, caused enhancement of the log kill by lactic acid. All anionic surfactants tested caused substantial enhancement of the log kill by lactic acid.

[4] = test system: E. coli ATCC 43888; test: Reaction mixture streak plate, visual observation; conditions: room temperature
Protocol: The tests were performed at room temperature.

[5] = Niaproof 08 0.02 wt./wt. % in 2.5 wt. % lactic acid
[6] = Niaproof 08 0.04 wt./wt. % in 2.5 wt. % lactic acid
[7] = Niaproof 08 0.06 wt./wt. % in 2.5 wt. % lactic acid
[8] = Niaproof 08 0.10 wt./wt. % in 2.5 wt. % lactic acid

SMILES: CCCCC(CC)COS(=O)(=O)[O-].[Na+] (centres unmarked) [Niaproof 08, sodium 2-ethylhexyl sulfate]
- +Niaproof 08 (Log Kill) ([1]; 2.5% lactic acid + Niaproof 08, pH 2.19, 20 secs.): 5.75 log
- +Niaproof 08 (Log Kill) ([1]; 2.5% lactic acid + Niaproof 08, pH 2.42, 20 secs.): 3.17 log
- +Niaproof 08 (Log Kill) ([1]; 2.5% lactic acid + Niaproof 08, pH 2.59, 20 secs.): 3.81 log
- +Niaproof 08 (Log Kill) ([1]; 2.5% lactic acid + Niaproof 08, pH 2.74, 20 secs.): 4.94 log
- +Niaproof 08 (Log Kill) ([1]; 2.5% lactic acid + Niaproof 08, pH 2.86, 20 secs.): 5.01 log
- +Niaproof 08 (Log Kill) ([1]; 2.5% lactic acid + Niaproof 08, pH 3.24, 20 secs.): 0 log
- +Niaproof 08 (Log Kill) ([1]; 2.5% lactic acid + Niaproof 08, pH 3.67, 20 secs.): 0 log
- Log Kill […] Lactic Acid ([2]; Niaproof 08 0.02 % wt./wt. in […] lactic acid, 15 seconds): 0.575 log
- Enhancement Factor (log10 kill with lactic acid and surfactant divided by log10 kill with lactic acid only) [2, 5]: 2.37
- Log Kill ([2]; Niaproof 08 0.02 wt./wt. % in 2.5 wt. % lactic acid, 15 seconds, room temperature): 1.08 log and 1.080 log
- Log Kill […] Lactic Acid ([2]; Niaproof 08 0.04 % wt./wt. in […] lactic acid, 15 seconds): 1.060 log
- Enhancement Factor (log10 kill with lactic acid and surfactant divided by log10 kill with lactic acid only) [2, 6]: 3.82
- Log Kill ([2]; Niaproof 08 0.04 wt./wt. % in 2.5 wt. % lactic acid, 15 seconds, room temperature): 1.74 log and 1.740 log
- Log Kill […] Lactic Acid ([2]; Niaproof 08 0.06 % wt./wt. in […] lactic acid, 15 seconds): 1.011 log
- Log Kill […] Lactic Acid ([2]; Niaproof 08 0.08 % wt./wt. in […] lactic acid, 15 seconds): 2.110 log
- Enhancement Factor (log10 kill with lactic acid and surfactant divided by log10 kill with lactic acid only) ([2]; Niaproof 08 0.08 wt./wt. % in 2.5 wt. % lactic acid): 10.5
- Log Kill ([2]; Niaproof 08 0.08 wt./wt. % in 2.5 wt. % lactic acid, 15 seconds, room temperature): 4.8 log and 4.800 log
- Log Kill […] Lactic Acid ([2]; Niaproof 08 0.10 % wt./wt. in […] lactic acid, 15 seconds): 2.770 log
- Log Kill […] Lactic Acid ([2]; Niaproof 08 0.12 % wt./wt. in […] lactic acid, 15 seconds): 2.820 log
- Enhancement Factor (log10 kill with lactic acid and surfactant divided by log10 kill with lactic acid only) ([2]; Niaproof 08 0.12 wt./wt. % in 2.5 wt. % lactic acid): 13.4
- Log Kill ([2]; Niaproof 08 0.12 wt./wt. % in 2.5 wt. % lactic acid, 15 seconds, room temperature): 6.1 log and 6.100 log
- Enhancement Factor (log10 kill with lactic acid and surfactant divided by log10 kill with lactic acid only) ([2]; Niaproof 08 0.16 wt./wt. % in 2.5 wt. % lactic acid): 13.4
- Log Kill ([2]; Niaproof 08 0.16 wt./wt. % in 2.5 wt. % lactic acid, 15 seconds, room temperature): 6.1 log and 6.100 log
- Log Kill […] Lactic Acid ([2]; Niaproof 08 0.20 % wt./wt. in […] lactic acid, 15 seconds): 5.980 log
- Enhancement Factor (log10 kill with lactic acid and surfactant divided by log10 kill with lactic acid only) ([2]; Niaproof 08 0.20 wt./wt. % in 2.5 wt. % lactic acid): 13.4
- Log Kill ([2]; Niaproof 08 0.20 wt./wt. % in 2.5 wt. % lactic acid, 15 seconds, room temperature): ~6 log and 6.1 log and 6.100 log
- Log Kill […] Lactic Acid ([2]; Niaproof 08 […] wt./wt. in […] lactic acid, 15 seconds): 5.980 log
- elimination of detectable E. coli ([2]; Niaproof 08 above about 0.2 wt./wt. % in 2.5 wt. % lactic acid, 15 seconds, room temperature): complete elimination of detectable E. coli
- cfu per ml ([2]; Niaproof 08 alone 0.02 % wt./wt., no lactic acid, 15 seconds): 4.05E+07 cfu per ml
- cfu per ml ([2]; Niaproof 08 alone 0.06 % wt./wt., no lactic acid, 15 seconds): 3.63E+07 cfu per ml
- cfu per ml ([2]; Niaproof 08 alone 0.14 % wt./wt., no lactic acid, 15 seconds): 4.25E+07 cfu per ml
- cfu per ml ([2]; Niaproof 08 alone 0.20 % wt./wt., no lactic acid, 15 seconds): 4.15E+07 cfu per ml
- antimicrobial effect of Niaproof 08 by itself ([2]; no lactic acid, up to 0.20 % wt./wt., 15 seconds): no antimicrobial effect
- Log Kill (Lactic Acid + Surfactant) ([2]; surfactant 0.2% in 2.5% lactic acid, 15 seconds, 74 to 80 degrees F.): 4.08 log
- Log Kill (Lactic Acid + Surfactant) ([3]; 0.1% Niaproof 08 in 2.5% lactic acid, 15 seconds, 83 degrees F.): 6.54 log
- Enhancement Factor [3, 5]: 1.52
- Log Kill [3, 5]: 3.469 log
- Enhancement Factor [3, 6]: 1.43
- Log Kill [3, 6]: 3.259 log
- Enhancement Factor [3, 7]: 2.79
- Log Kill [3, 7]: 6.367 log
- Enhancement Factor [3, 8]: 2.86
- Log Kill [3, 8]: 6.539 log
- cfu per ml ([3]; Niaproof 08 alone 0.02 % wt./wt.): 3.41E+07 cfu per ml
- cfu per ml ([3]; Niaproof 08 alone 0.06 % wt./wt.): 3.43E+07 cfu per ml
- cfu per ml ([3]; Niaproof 08 alone 0.14 % wt./wt.): 3.56E+07 cfu per ml
- cfu per ml ([3]; Niaproof 08 alone 0.20 % wt./wt.): 3.04E+07 cfu per ml
- Description/Observation ([4]; Niaproof 08 0.02 % wt./wt. in 2.5 wt. % lactic acid): Extensive bacterial growth.
- Description/Observation ([4]; Niaproof 08 0.04 % wt./wt. in 2.5 wt. % lactic acid): No bacterial growth.
- Description/Observation ([4]; Niaproof 08 0.06 % wt./wt. in 2.5 wt. % lactic acid): No bacterial growth.
- Description/Observation ([4]; Niaproof 08 0.08 % wt./wt. in 2.5 wt. % lactic acid): No bacterial growth.
- Description/Observation ([4]; Niaproof 08 0.10 % wt./wt. in 2.5 wt. % lactic acid): No bacterial growth.
- concentration of surfactant at which all bacteria added were killed ([4]; in 2.5 wt. % lactic acid): ≥ 0.04%
